Reference: patent US10772891B2, “Pyrazolo pyridine derivatives as NADPH oxidase inhibitors” (GENKYOTEX SUISSE SA, priority 2008, dated 2020)
pIC50: −log10 of the molar value.

These compounds were tested on NOX (assay: Nitroblue tetrazolium (NBT) superoxide test in cells). Details: DPI 10 μM, % of the activity in control cells, 'usually'.
Assay type: cell-based, human
Protocol: Intracellular and extracellular superoxide was measured by a colorimetric technique using a quantitative nitroblue tetrazolium (NBT) test. SOD-inhibitable conversion of NBT to formazan, a fine blue precipitate, in the presence of superoxide anion was measured using Fluostar Optima spectrometer (BMG labtech). Following incubation with appropriate stimuli, cells were trypsinized (1× Trypsin-EDTA), collected by centrifugation, and washed with PBS to remove medium. 5×10^5 cells were plated on 48-well plates and incubated in Hank's balanced salt solution containing 0.5 mg/mL NBT with or without 800 U/mL SOD in the presence or absence of compounds according to the invention. As a control, DPI was included at a final concentration of 10 μM. After 2.5 h, cells were fixed and washed with methanol to remove non reduced NBT. The reduced formazan was then dissolved in 230 μl of 2M potassium hydroxide and in 280 μl of dimethylsulfoxide. The absorption was measured at 630 nm. For calculation, the absorbance at 630 nm was normalized for each individual well. The mean of the four blank values was subtracted from each corrected value for each time point. NOX activities were expressed as % of the activity in control cells. Residual activity of DPI-treated cells was usually <10%.

| SMILES | Residual activity of DPI-treated cells |
| --- | --- |
| c1ccc([I+]c2ccccc2)cc1 [DPI, Diphenyl-iodonium] | < 10% |

The compounds below were run against T1, NOX (Homo sapiens, UniProt P04839) (assay: Amplex Red measurement of extracellular hydrogen peroxide (NOX activity) in DMSO-differentiated HL60 cells). Details: not given.
T1 construct: NOX activity as measured by Amplex Red using DMSO-differentiated HL60 cells; endogenous in cells; host or cells: HL-60 cells differentiated to the neutrophil phenotype with Me2SO
T1 sequence (P04839 2-570 limits assumed): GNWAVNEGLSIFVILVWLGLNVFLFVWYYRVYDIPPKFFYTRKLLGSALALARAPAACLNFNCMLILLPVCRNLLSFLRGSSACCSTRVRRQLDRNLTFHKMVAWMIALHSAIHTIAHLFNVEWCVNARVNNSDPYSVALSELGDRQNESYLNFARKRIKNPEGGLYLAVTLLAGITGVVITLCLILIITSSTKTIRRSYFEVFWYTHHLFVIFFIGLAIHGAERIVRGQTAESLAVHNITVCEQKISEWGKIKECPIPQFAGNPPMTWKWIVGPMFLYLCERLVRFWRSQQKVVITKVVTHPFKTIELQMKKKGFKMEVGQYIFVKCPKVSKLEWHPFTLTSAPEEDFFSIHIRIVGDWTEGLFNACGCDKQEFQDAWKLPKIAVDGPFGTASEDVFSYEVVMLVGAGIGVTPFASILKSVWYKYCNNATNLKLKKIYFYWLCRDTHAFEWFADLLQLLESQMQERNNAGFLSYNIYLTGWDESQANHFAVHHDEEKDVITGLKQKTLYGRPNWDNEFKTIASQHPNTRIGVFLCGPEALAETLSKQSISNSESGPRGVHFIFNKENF
T1 sequence (P13498 1-195 partner): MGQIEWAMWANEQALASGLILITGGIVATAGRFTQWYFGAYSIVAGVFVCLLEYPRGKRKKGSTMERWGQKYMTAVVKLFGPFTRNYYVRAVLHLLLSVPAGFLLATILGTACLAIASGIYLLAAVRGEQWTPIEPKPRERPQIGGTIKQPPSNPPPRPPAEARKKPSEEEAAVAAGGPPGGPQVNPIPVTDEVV
Assay type: cell-based
Protocol: Human acute myeloid leukemia cell line HL-60 was cultured in RPMI 1640 (Invitrogen) supplemented with 10% heat-inactivated calf serum, 2 mM glutamine, 100 U/mL penicillin (Sigma), and 100 μg streptomycin (Sigma) at 37° C. under a humidified atmosphere of 5% CO2. HL60 differentiation to the neutrophil phenotype was triggered by adding Me2SO (final concentration 1.25% v/v for 6 days) to the culture medium.
Extracellular hydrogen peroxide was measured using Amplex UltraRed (Molecular Probes). Cells were trypsinized (1× Trypsin-EDTA), collected by centrifugation, and resuspended in HBSS supplemented with 1% glucose. Cells were seeded into black 96-well plates at a density of 50′000 cells in 200 μl testing buffer (HBSS 1% glucose containing 0.005 U/mL horseradish peroxidase (Roche) and 50 μM Amplex Red in the presence or absence of compounds according to the invention. As a control, DPI was included at a final concentration of 10 μM The plates were placed in the fluorescent Optima Fluorescent plate reader and kept at 37° C. during 20 min. Fluorescence was measured for 15 min with excitation and emission wavelengths of 544 nm and 590 nm respectively. NOX activities were expressed as % of the activity in control cells. Residual activity of DPI-treated cells was usually <10%. […]
The Table 2 below summarizes the IC50 of NOX activity as measured by Amplex Red using DMSO-differentiated HL60 cells as described above: […]

| SMILES | pIC50 |
| --- | --- |
| Cc1c2c(=O)n(-c3cccc(Cl)c3)[nH]c2cc(=O)n1CCCC(=O)N1CCN(C)CC1 [Compound 28, 2-(3-chlorophenyl)-4-methyl-5-[4-(4-methylpiperazin-1-yl)-4-oxobutyl]-1H-pyrazolo[4,3-c]pyridine-3,6(2H,5H)-dione] | > 5.30 |
| Cc1c2c(=O)n(-c3ccccc3F)[nH]c2cc(=O)n1Cc1cccc(N2CCOCC2)n1 [Compound 20, 2-(2-fluorophenyl)-4-methyl-5-[(6-morpholin-4-ylpyridin-2-yl)methyl]-1H-pyrazolo[4,3-c]pyridine-3,6(2H,5H)-dione] | > 5.30 |
| Cc1c2c(=O)n(-c3ccccc3Cl)[nH]c2cc(=O)n1NC(=O)COc1ccc(F)cc1 [Compound 13, N-[2-(2-chlorophenyl)-4-methyl-3,6-dioxo-1,2,3,6-tetra hydro-5H-pyrazolo[4,3-c]pyridin-5-yl]-2-(4-fluorophenoxy)acetamide] | > 5.30 |
| CCOCCCn1c(C)c2c(=O)n(-c3nc(-c4ccccc4)cs3)[nH]c2cc1=O [Compound 7, 5-(3-ethoxypropyl)-4-methyl-2-(4-phenyl-1,3-thiazol-2-yl)-1H-pyrazolo[4,3-c]pyridine-3,6(2H,5H)-dione] | > 5.30 |
| Cc1c2c(=O)n(-c3ccccc3F)[nH]c2cc(=O)n1CC(=O)NCc1ccccn1 [Compound 30, 2-[2-(2-fluorophenyl)-4-methyl-3,6-dioxo-1,2,3,6-tetra hydro-5H-pyrazolo[4,3-c]pyridin-5-yl]-N-(pyridin-2-ylmethyl)acetamide] | > 5.30 |
| Cc1c2c(=O)n(-c3ccccc3Cl)[nH]c2cc(=O)n1C [Compound 8, 2-(2-chlorophenyl)-4,5-dimethyl-1H-pyrazolo[4,3-c]pyridine-3,6(2H,5H)-dione] | > 5.30 |
| Cc1c2c(=O)n(-c3ccccc3Cl)[nH]c2cc(=O)n1Cc1ccccc1N1CCOCC1 [Compound 1, 2-(2-chlorophenyl)-4-methyl-5-(2-morpholin-4-ylbenzyl)-1H-pyrazolo[4,3-c]pyridine-3,6(2H,5H)-dione] | > 5.30 |
| Cc1c2c(=O)n(-c3ccccc3Cl)[nH]c2cc(=O)n1CC(c1ccccc1)N1CCOCC1 (centres unmarked) [Compound 3, 2-(2-chlorophenyl)-4-methyl-5-(2-morpholin-4-yl-2-phenylethyl)-1H-pyrazolo[4,3-c]pyridine-3,6(2H,5H)-dione] | > 5.30 |
| COc1cccc(CCn2c(C)c3c(=O)n(-c4ccccc4Cl)[nH]c3cc2=O)c1 [Compound 4, 2-(2-chlorophenyl)-5-[2-(3-methoxyphenyl)ethyl]-4-methyl-1H-pyrazolo[4,3-c]pyridine-3,6(2H,5H)-dione] | > 5.30 |
| Cc1c2c(=O)n(-c3ccccc3Cl)[nH]c2cc(=O)n1Cc1ccc(CN2CCN(C)CC2)cc1 [Compound 2, 2-(2-chlorophenyl)-4-methyl-5-{4-[(4-methylpiperazin-1-yl)methyl]benzyl}-1H-pyrazolo[4,3-c]pyridine-3,6(2H,5H)-dione] | > 5.30 |
| Cc1c2c(=O)n(-c3nc(-c4ccccc4)cs3)[nH]c2cc(=O)n1Cc1cccc(Oc2ccccc2)c1 [Compound 10, 4-methyl-5-(3-phenoxybenzyl)-2-(4-phenyl-1,3-thiazol-2-yl)-1H-pyrazolo[4,3-c]pyridine-3,6(2H,5H)-dione] | > 5.30 |

What follows are compounds tested on NOX (assay: H2DCF-DA fluorescence in TGF-β stimulated HUVEC). Details: % of the activity in control cells, 'usually'.
Assay type: cell-based, human
Protocol: HUVEC are cultured in endothelial basal medium supplemented with hydrocortisone (1 μg/mL, CalBioChem), bovine brain extract (12 μg/mL), gentamicin (50 μg/mL, CalBioChem), amphotericin B (50 ng/mL, CalBioChem EGF (10 ng/mL, and 10% FCS until the fourth passage. When the fifth passage was started, cells were cultured with a lower concentration of FCS (2%) in the absence of EGF, if not indicated otherwise. All experiments were done with cells of the fifth passage. The cells were incubated with OxLDL (oxidized low-density lipoprotein) or its buffer as control for 24 h, before detection of 02 formation.
HUVEC were plated on coverslips and made quiescent overnight in 0.5% BSA before stimulation with TGF-β. Cells were loaded for 10 minutes with 5 μM CM-H2DCFDA in phenol-red-free medium in the dark and then treated with TGF-β (R&D Systems) in the presence or absence of compounds according to the invention. Cells were then visualized by immunofluorescence microscopy after fixation and staining of the nuclei with DAPI or examined live using confocal microscopy. DCF fluorescence was visualized at an excitation wavelength of 488 nm and emission at 515 to 540 nm. […] For calculation, the absorbance at […] was normalized to absorbance at […] for each individual well. […] NOX activities were expressed as % of the activity in control cells. […]

| SMILES | Residual activity of DPI-treated cells |
| --- | --- |
| c1ccc([I+]c2ccccc2)cc1 [DPI, Diphenyl-iodonium] | < 10% |

Each compound was assayed on NOX (assay: Chemiluminescence (Luminol) ROS measurement in cells). Details: % of the activity in control cells, 'usually'.
Assay type: cell-based, human
Protocol: ROS was measured using the chemiluminescent probe luminol. Cells were cultured and plated as for Amplex Red except that the Amplex Red agent was replaced by 10 μg/mL luminol (Sigma 09235). Light emission was recorded continuously at 37° C. for 60 minutes using the luminescence function of the FluoStar Optima fluorescent plate reader. The mean of the four blank values was subtracted from each corrected value for each time point. NOX activities were expressed as % of the activity in control cells. Residual activity of DPI-treated cells was usually <10%.

| SMILES | Residual activity of DPI-treated cells |
| --- | --- |
| c1ccc([I+]c2ccccc2)cc1 [DPI, Diphenyl-iodonium] | < 10% |
